Laboratory results from patent publication US7309788B2, “Method for preparing pyrimidinone compound and pharmaceutically acceptable salts thereof” (Boryung Pharmaceutical Co., Ltd., priority 2001, dated 2007).

Assay: Stability: hourly moisture content (moisture absorption from the air)
Format: physicochemical
Excerpt: As a result, the moisture content increased, as the time went by. […] The elementary analysis data for the aforementioned hydrates is illustrated in the following Table 2.

moisture content (60% RH, Time 1 hour): 6.2%
moisture content (60% RH, Time 2 hour): 9.1%
moisture content (60% RH, Time 3 hour): 9.15%
moisture content (60% RH, Time 4 hour): 9.1%
moisture content (60% RH, Time 5 hour): 9.2%
moisture content (60% RH, Time 6 hour): 9.1%
moisture content (75% RH, Time 1 hour): 9.05%
moisture content (75% RH, Time 2 hour): 9.1%
moisture content (75% RH, Time 3 hour): 9.1%
moisture content (75% RH, Time 4 hour): 9.15%
moisture content (75% RH, Time 5 hour): 9.2%
moisture content (75% RH, Time 6 hour): 9.1%
moisture content (Room temperature & Room humidity, Time 1 hour): 3.4%
moisture content (Room temperature & Room humidity, Time 2 hour): 5.6%
moisture content (Room temperature & Room humidity, Time 3 hour): 9.1%
moisture content (Room temperature & Room humidity, Time 4 hour): 9.2%
moisture content (Room temperature & Room humidity, Time 5 hour): 9.1%
moisture content (Room temperature & Room humidity, Time 6 hour): 9.1%
Compound: CCCCc1nc(C)c(CC(=S)N(C)C)c(=O)n1Cc1ccc(-c2ccccc2-c2nnn[nH]2)cc1 [Example 3, 2-n-butyl-5-dimethylaminothiocarbonylmethyl-6-methyl-3-[[2′-(1 H-tetrazol-5-yl)biphenyl-4-yl]methyl]-pyrimidin-4(3H)-one]
